From PubChem BioAssay (NCI)
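These data come from cells grown in 96-well plates and exposed to compound for 48 hours at five concentrations. The concentration for 50% growth inhibition is given as GI50. TGI denotes the concentration required for complete inhibition of growth.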

Key:
Assay in all cases: NCI-60 cell line screen, 48 h
786-0 renal = test system: 786-0 renal
A549 NSCLC = test system: A549 NSCLC
ACHN renal = test system: ACHN renal
BT-549 breast = test system: BT-549 breast
CAKI-1 renal = test system: CAKI-1 renal
CCRF-CEM leukemia = test system: CCRF-CEM leukemia
COLO 205 colon = test system: COLO 205 colon
DU-145 prostate = test system: DU-145 prostate
EKVX NSCLC = test system: EKVX NSCLC
HCC-2998 colon = test system: HCC-2998 colon
HCT-116 colon = test system: HCT-116 colon
HCT-15 colon = test system: HCT-15 colon
HL-60(TB) leukemia = test system: HL-60(TB) leukemia
HOP-62 NSCLC = test system: HOP-62 NSCLC
HOP-92 NSCLC = test system: HOP-92 NSCLC
HT29 colon = test system: HT29 colon
IGROV1 ovarian = test system: IGROV1 ovarian
KM12 colon = test system: KM12 colon
LOX IMVI melanoma = test system: LOX IMVI melanoma
M14 melanoma = test system: M14 melanoma
MALME-3M melanoma = test system: MALME-3M melanoma
MCF7 breast = test system: MCF7 breast
MDA-MB-231 breast = test system: MDA-MB-231 breast
MDA-MB-435 = test system: MDA-MB-435
MOLT-4 leukemia = test system: MOLT-4 leukemia
NCI-H226 lung = test system: NCI-H226 lung
NCI-H23 lung = test system: NCI-H23 lung
NCI-H460 lung = test system: NCI-H460 lung
NCI-H522 lung = test system: NCI-H522 lung
NCI/ADR-RES ovarian = test system: NCI/ADR-RES ovarian
OVCAR-3 ovarian = test system: OVCAR-3 ovarian
OVCAR-4 ovarian = test system: OVCAR-4 ovarian
OVCAR-5 ovarian = test system: OVCAR-5 ovarian
OVCAR-8 ovarian = test system: OVCAR-8 ovarian
PC-3 prostate = test system: PC-3 prostate
RPMI-8226 leukemia = test system: RPMI-8226 leukemia
RXF 393 renal = test system: RXF 393 renal
SF-268 CNS = test system: SF-268 CNS
SF-295 CNS = test system: SF-295 CNS
SF-539 CNS = test system: SF-539 CNS
SK-MEL-2 melanoma = test system: SK-MEL-2 melanoma
SK-MEL-28 melanoma = test system: SK-MEL-28 melanoma
SK-MEL-5 melanoma = test system: SK-MEL-5 melanoma
SK-OV-3 ovarian = test system: SK-OV-3 ovarian
SN12C renal = test system: SN12C renal
SNB-19 CNS = test system: SNB-19 CNS
SNB-75 CNS = test system: SNB-75 CNS
SW-620 colon = test system: SW-620 colon
T-47D breast = test system: T-47D breast
TK-10 renal = test system: TK-10 renal
U251 CNS = test system: U251 CNS
UACC-257 melanoma = test system: UACC-257 melanoma
UACC-62 melanoma = test system: UACC-62 melanoma
UO-31 renal = test system: UO-31 renal

For `Oc1ccccc1/C=N\Nc1ccccc1`, the GI50 (786-0 renal) was 2.7 µM, the TGI (786-0 renal) was 16.6 µM and the GI50 (A549 NSCLC) was 3.94 µM. The TGI (A549 NSCLC) was > 100 µM, the GI50 (ACHN renal) was 2.84 µM and the TGI (ACHN renal) was 62.2 µM. The GI50 (BT-549 breast) was 3.19 µM, the TGI (BT-549 breast) was 25.4 µM and the GI50 (CAKI-1 renal) was 1.64 µM. For the same compound, the TGI (CAKI-1 renal) was 21.4 µM, the GI50 (CCRF-CEM leukemia) was 0.533 µM and the TGI (CCRF-CEM leukemia) was > 100 µM. For the same compound, the GI50 (COLO 205 colon) was 5.92 µM, the TGI (COLO 205 colon) was 21.3 µM and the GI50 (DU-145 prostate) was 15.8 µM. The TGI (DU-145 prostate) was > 100 µM, the GI50 (EKVX NSCLC) was 12.9 µM and the TGI (EKVX NSCLC) was > 100 µM. The GI50 (HCC-2998 colon) was 3.45 µM, the TGI (HCC-2998 colon) was 15.5 µM and the GI50 (HCT-116 colon) was 7.22 µM. The TGI (HCT-116 colon) was > 100 µM, the GI50 (HCT-15 colon) was 4.16 µM and the TGI (HCT-15 colon) was 26.4 µM. For the same compound, the GI50 (HL-60(TB) leukemia) was 1.31 µM, the TGI (HL-60(TB) leukemia) was 4.8 µM and the GI50 (HOP-62 NSCLC) was 21.9 µM. For the same compound, the TGI (HOP-62 NSCLC) was > 100 µM, the GI50 (HOP-92 NSCLC) was 10.7 µM and the TGI (HOP-92 NSCLC) was 42.8 µM. For the same compound, the GI50 (HT29 colon) was 9.39 µM, the TGI (HT29 colon) was 28.4 µM and the GI50 (IGROV1 ovarian) was 21.7 µM. For the same compound, the TGI (IGROV1 ovarian) was > 100 µM, the GI50 (KM12 colon) was 2.25 µM and the TGI (KM12 colon) was > 100 µM. For the same compound, the GI50 (LOX IMVI melanoma) was 0.725 µM, the TGI (LOX IMVI melanoma) was 12.5 µM and the GI50 (M14 melanoma) was 3.7 µM. For the same compound, the TGI (M14 melanoma) was 19.4 µM, the GI50 (MALME-3M melanoma) was 3.72 µM and the TGI (MALME-3M melanoma) was 21.7 µM. For the same compound, the GI50 (MCF7 breast) was 4.06 µM, the TGI (MCF7 breast) was > 100 µM and the GI50 (MDA-MB-231 breast) was 0.553 µM. The TGI (MDA-MB-231 breast) was 22.7 µM, the GI50 (MDA-MB-435) was 2.87 µM and the TGI (MDA-MB-435) was > 100 µM. It also gave a GI50 (MOLT-4 leukemia) of 0.974 µM, a TGI (MOLT-4 leukemia) of 55.6 µM and a GI50 (NCI-H226 lung) of 3.13 µM. For the same compound, the TGI (NCI-H226 lung) was 31.4 µM, the GI50 (NCI-H23 lung) was 12 µM and the TGI (NCI-H23 lung) was 84.1 µM. The GI50 (NCI-H460 lung) was 3.36 µM, the TGI (NCI-H460 lung) was > 100 µM and the GI50 (NCI-H522 lung) was 1.73 µM. For the same compound, the TGI (NCI-H522 lung) was 82.9 µM, the GI50 (NCI/ADR-RES ovarian) was 3.2 µM and the TGI (NCI/ADR-RES ovarian) was 88.5 µM. The GI50 (OVCAR-3 ovarian) was 10.4 µM, the TGI (OVCAR-3 ovarian) was > 100 µM and the GI50 (OVCAR-4 ovarian) was 24.8 µM. For the same compound, the TGI (OVCAR-4 ovarian) was > 100 µM, the GI50 (OVCAR-5 ovarian) was 8.75 µM and the TGI (OVCAR-5 ovarian) was 39.2 µM. For the same compound, the GI50 (OVCAR-8 ovarian) was 4.94 µM, the TGI (OVCAR-8 ovarian) was > 100 µM and the GI50 (PC-3 prostate) was 9.32 µM. For the same compound, the TGI (PC-3 prostate) was > 100 µM, the GI50 (RPMI-8226 leukemia) was 3.99 µM and the TGI (RPMI-8226 leukemia) was 56.8 µM. For the same compound, the GI50 (RXF 393 renal) was 19.1 µM, the TGI (RXF 393 renal) was 77.9 µM and the GI50 (SF-268 CNS) was 18.6 µM. For the same compound, the TGI (SF-268 CNS) was > 100 µM, the GI50 (SF-295 CNS) was 1.63 µM and the TGI (SF-295 CNS) was 8.07 µM. It also gave a GI50 (SF-539 CNS) of 2.18 µM, a TGI (SF-539 CNS) of 5.59 µM and a GI50 (SK-MEL-2 melanoma) of 13.2 µM. The TGI (SK-MEL-2 melanoma) was > 100 µM, the GI50 (SK-MEL-28 melanoma) was 5.33 µM and the TGI (SK-MEL-28 melanoma) was > 100 µM. For the same compound, the GI50 (SK-MEL-5 melanoma) was 3.59 µM, the TGI (SK-MEL-5 melanoma) was 19.8 µM and the GI50 (SK-OV-3 ovarian) was 70.4 µM. The TGI (SK-OV-3 ovarian) was > 100 µM, the GI50 (SN12C renal) was 3.41 µM and the TGI (SN12C renal) was > 100 µM. The GI50 (SNB-19 CNS) was 13.7 µM, the TGI (SNB-19 CNS) was 95 µM and the GI50 (SNB-75 CNS) was 21.2 µM. For the same compound, the TGI (SNB-75 CNS) was > 100 µM, the GI50 (SW-620 colon) was 2.94 µM and the TGI (SW-620 colon) was > 100 µM. The GI50 (T-47D breast) was 3.43 µM, the TGI (T-47D breast) was > 100 µM and the GI50 (TK-10 renal) was 24.9 µM. The TGI (TK-10 renal) was > 100 µM, the GI50 (U251 CNS) was 10.2 µM and the TGI (U251 CNS) was 65.6 µM. For the same compound, the GI50 (UACC-257 melanoma) was 31.1 µM, the TGI (UACC-257 melanoma) was > 100 µM and the GI50 (UACC-62 melanoma) was 0.798 µM. The TGI (UACC-62 melanoma) was 10.1 µM, the GI50 (UO-31 renal) was 2.35 µM and the TGI (UO-31 renal) was 36.3 µM.
